Assays:
[1] = molecular target: T1, buttermilk-derived xanthine oxidase (Bos taurus, UniProt P80457); assay: Xanthine oxidase inhibitory activity assay (xanthine substrate, uric acid detected by absorbance at 295 nm); type: biochemical
T1 construct: an enzyme solution comprising buttermilk-derived xanthine oxidase dissolved at 0.2 units/ml in phosphate buffer; from tissue; host or cells: buttermilk

[2] = system: potassium oxonate-induced hyperuricemic rat models; assay: Uric acid level in blood of potassium oxonate-induced hyperuricemic rat models; type: in vivo, SD rats
Method: 5-week-old male SD rats were purchased from Japan SLC, Inc. and were acclimatized for 1 week. The rats were divided into groups based on body weight (each group consisting of 6 rats), and 5 groups were designated in total; i.e., a control group, a group to which the Artemisia extract is administered, a group to which the chrysanthemum extract is administered, a group to which the guava extract is administered, and a group to which the oregano extract is administered. At the outset, potassium oxonate (Sigma-Aldrich) was administered intraperitoneally to rats at a dose of 250 mg/kg of body weight to prepare potassium oxonate-induced hyperuricemic rat models. […] Blood serum was fractionated from the sampled blood via centrifugation and the uric acid level in the blood was measured. […] Blood serum was fractionated from the sampled blood via centrifugation and the uric acid level in the blood was measured. […] Blood serum was fractionated from the sampled blood via centrifugation and the uric acid level in the blood was measured.

T1 sequence (P80457 whole entry): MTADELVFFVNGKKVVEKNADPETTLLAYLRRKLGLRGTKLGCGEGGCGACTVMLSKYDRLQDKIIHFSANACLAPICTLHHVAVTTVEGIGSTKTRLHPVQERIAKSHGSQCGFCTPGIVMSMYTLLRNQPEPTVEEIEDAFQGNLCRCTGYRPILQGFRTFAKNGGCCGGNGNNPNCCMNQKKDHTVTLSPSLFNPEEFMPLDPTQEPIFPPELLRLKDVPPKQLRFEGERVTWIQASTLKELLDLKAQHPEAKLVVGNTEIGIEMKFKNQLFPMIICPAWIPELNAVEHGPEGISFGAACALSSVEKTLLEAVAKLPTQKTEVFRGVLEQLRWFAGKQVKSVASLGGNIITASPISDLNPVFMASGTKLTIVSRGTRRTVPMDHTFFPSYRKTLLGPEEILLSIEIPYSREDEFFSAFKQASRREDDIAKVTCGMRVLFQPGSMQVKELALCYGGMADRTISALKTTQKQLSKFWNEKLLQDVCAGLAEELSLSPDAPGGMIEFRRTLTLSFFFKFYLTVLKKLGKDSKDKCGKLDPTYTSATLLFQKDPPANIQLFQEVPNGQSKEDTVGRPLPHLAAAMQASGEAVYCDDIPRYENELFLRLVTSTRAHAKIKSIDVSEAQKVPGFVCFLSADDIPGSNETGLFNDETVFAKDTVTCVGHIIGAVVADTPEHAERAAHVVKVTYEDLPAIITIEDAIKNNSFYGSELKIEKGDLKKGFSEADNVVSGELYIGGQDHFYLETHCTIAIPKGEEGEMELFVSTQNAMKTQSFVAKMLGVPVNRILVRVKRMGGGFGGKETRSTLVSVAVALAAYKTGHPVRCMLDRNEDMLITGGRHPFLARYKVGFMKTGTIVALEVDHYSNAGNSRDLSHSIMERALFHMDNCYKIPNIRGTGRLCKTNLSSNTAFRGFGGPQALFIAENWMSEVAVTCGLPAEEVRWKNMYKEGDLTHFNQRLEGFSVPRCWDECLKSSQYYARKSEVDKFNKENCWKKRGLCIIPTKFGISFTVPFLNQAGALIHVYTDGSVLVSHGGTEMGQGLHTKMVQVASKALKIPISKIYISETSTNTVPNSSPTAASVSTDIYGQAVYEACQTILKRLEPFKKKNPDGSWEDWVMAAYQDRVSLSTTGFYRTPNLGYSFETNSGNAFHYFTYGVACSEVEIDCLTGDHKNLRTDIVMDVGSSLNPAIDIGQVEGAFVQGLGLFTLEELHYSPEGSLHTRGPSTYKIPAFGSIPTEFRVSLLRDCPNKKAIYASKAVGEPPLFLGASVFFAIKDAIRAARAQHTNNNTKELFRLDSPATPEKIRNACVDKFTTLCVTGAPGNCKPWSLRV

IC50 ([1]; concentration inhibiting 50% of xanthine oxidase activity, solvent control = 100%): 1500 nM
Compound: O=C(/C=C/c1ccc(O)c(O)c1)c1ccc(O)c(O)c1O [Okanin, okanin]
xanthine oxidase activity compared with allopurinol (in words) ([1]; comparison of IC50 values, Table 2): more potent xanthine oxidase activity than allopurinol
Uric acid level in blood ([2]; 50 mg okanin per kg body weight 1 hour after potassium oxonate (250 mg/kg i.p.), blood sampled 2 hours after potassium oxonate, control group 4.92 ± 0.53): 4.10 ± 0.56 mg/dL
uric acid level after administration (in words) ([2]; okanin 50 mg/kg, blood 2 hours after potassium oxonate, versus control group, Table 5): significantly lowered uric acid level

Reference: patent US20110038959A1, “PLANT-ORIGIN DRUG FOR PREVENTING OR IMPROVING HYPERURICEMIA” (priority 2009, published 2011)
